Results reported in patent US20230257372A1 (CHONG KUN DANG PHARMACEUTICAL CORP., priority 2020, published 2023).
Where two headings read alike, the source gives them in different places.

Legend:
human recombinant HDAC1 = biological target: T1, human recombinant HDAC1 (Homo sapiens, UniProt Q13547); assay: HDAC1 enzyme activity inhibition (HDAC Fluorimetric Drug Discovery Kit); assay type: biochemical; settings: read-out: HDAC1
T1 construct: purchased Enzo Life Science, Inc. BML-SE456
In short: (§1)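 Fluorescence from a Fluor de Lys developer step (30 minutes) reports residual deacetylation after a 60-minute, 30° C reaction of […] enzyme with 10 μM substrate and 5-fold compound dilutions.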

human recombinant HDAC6 = biological target: T2, human recombinant HDAC6 (Homo sapiens, UniProt Q9UBN7); assay: HDAC6 enzyme activity inhibition (HDAC Fluorimetric Drug Discovery Kit); assay type: biochemical
T2 construct: purchased Calbiochem Inc. 382180
T2 sequence (Q9UBN7 1-1215): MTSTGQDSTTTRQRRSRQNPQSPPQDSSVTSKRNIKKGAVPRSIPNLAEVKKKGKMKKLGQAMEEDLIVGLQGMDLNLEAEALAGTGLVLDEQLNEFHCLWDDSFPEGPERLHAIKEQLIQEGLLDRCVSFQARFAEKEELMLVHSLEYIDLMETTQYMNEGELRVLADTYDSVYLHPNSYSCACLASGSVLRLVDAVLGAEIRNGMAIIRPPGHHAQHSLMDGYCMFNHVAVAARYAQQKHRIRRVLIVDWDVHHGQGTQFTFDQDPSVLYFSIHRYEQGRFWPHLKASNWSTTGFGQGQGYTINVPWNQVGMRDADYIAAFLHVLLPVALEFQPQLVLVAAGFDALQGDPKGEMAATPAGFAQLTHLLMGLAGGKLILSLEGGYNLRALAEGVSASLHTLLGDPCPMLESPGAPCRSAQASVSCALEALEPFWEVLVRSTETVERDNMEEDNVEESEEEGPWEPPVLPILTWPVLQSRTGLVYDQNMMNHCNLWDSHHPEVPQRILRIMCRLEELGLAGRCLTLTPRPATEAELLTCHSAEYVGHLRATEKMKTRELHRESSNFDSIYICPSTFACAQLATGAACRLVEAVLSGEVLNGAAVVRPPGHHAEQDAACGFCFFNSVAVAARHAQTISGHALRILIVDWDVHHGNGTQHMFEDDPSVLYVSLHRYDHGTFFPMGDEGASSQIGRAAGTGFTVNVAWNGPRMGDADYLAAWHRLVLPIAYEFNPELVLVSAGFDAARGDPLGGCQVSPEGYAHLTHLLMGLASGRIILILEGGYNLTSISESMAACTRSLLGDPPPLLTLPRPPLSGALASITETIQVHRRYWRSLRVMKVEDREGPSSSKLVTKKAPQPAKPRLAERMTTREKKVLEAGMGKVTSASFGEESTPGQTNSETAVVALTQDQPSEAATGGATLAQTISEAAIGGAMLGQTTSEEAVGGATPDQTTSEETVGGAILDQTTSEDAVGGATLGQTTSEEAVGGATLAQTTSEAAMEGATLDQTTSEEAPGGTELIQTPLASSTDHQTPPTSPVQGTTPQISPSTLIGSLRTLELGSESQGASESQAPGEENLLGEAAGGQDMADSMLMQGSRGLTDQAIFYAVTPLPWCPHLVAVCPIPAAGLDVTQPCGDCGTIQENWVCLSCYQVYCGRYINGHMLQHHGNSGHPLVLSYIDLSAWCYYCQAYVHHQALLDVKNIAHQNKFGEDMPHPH
In short: as §1

[1] = human recombinant HDAC1, Fluor de Lys substrate, 30° C. 60 minutes
[2] = human recombinant HDAC6, same protocol as HDAC1
[3] = human recombinant HDAC1, IC50 calculated with GraphPad Prism
[4] = human recombinant HDAC6, IC50 calculated with GraphPad Prism

T1 sequence (Q13547 whole entry): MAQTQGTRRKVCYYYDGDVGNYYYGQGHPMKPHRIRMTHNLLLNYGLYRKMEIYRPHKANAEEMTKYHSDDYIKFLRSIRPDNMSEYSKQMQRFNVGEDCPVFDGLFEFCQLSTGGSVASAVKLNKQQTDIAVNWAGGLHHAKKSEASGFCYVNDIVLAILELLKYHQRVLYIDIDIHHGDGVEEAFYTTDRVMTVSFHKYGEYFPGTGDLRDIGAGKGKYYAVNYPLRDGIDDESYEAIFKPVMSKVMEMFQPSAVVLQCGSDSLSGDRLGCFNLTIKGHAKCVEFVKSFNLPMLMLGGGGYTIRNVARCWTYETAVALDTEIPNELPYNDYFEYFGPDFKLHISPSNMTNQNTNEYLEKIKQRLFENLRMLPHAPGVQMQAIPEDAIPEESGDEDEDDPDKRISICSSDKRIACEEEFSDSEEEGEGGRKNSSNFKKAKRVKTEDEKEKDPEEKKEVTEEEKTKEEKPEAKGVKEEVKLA

SMILES | IC50 (human recombinant HDAC1; [1]) | HDAC6 selectivity (fold) (human recombinant HDAC6; HDAC6 over HDAC1) | IC50 (human recombinant HDAC6; [2]) | IC50 (human recombinant HDAC1; [3]) | HDAC6 selectivity (fold) (human recombinant HDAC6; HDAC1 IC50 / HDAC6 IC50) | IC50 (human recombinant HDAC6; [4])
Fc1cc(-c2nnc(C(F)F)o2)ccc1Cn1cc(-c2ccc(C3CN(C4CCC4)C3)cc2)nn1 [Compound 17699, 2-(4-((4-(4-(1-cyclobutylazetidin-3-yl)phenyl)-1H-1,2,3-triazol-1-yl)methyl)-3-fluorophenyl)-5-(difluoromethyl)-1,3,4-oxadiazole] | > 50000 nM | 1043 fold | 47.9 nM | – | – | –
CCN1[C@H](C)CN(c2cccc(-c3cn(Cc4ccc(-c5nnc(C(F)F)o5)cc4)nn3)c2)C[C@@H]1C [Compound 4442] | – | – | – | > 50000 nM | 1256 fold | 39.8 nM
Fc1cc(-c2nnc(C(F)F)o2)cnc1Cn1cc(-c2cccc(CN3CCCC3)c2Cl)nn1 [Compound 19089] | > 50000 nM | 665 fold | 75.1 nM | – | – | –
Fc1cc(-c2nnc(C(F)F)o2)ccc1Cn1cc(-c2cncc(Br)c2)nn1 [Compound 16930, 2-(4-((4-(5-bromopyridin-3-yl)-1H-1,2,3-triazol-1-yl)methyl)-3-fluorophenyl)-5-(difluoromethyl)-1,3,4-oxadiazole] | > 50000 nM | 1043 fold | 47.9 nM | – | – | –
Fc1cc(-c2nnc(C(F)F)o2)ccc1Cn1cc(-c2ccc(CN3CCCC3)cc2)nn1 [Compound 4521, 2-(difluoromethyl)-5-(3-fluoro-4-((4-(4-(pyrrolidin-1-ylmethyl)phenyl)-1H-1,2,3-triazol-1-yl)methyl)phenyl)-1,3,4-oxadiazole] | > 50000 nM | 4464 fold | 11.2 nM | – | – | –
Fc1ccc(-c2cn(Cc3ccc(-c4nnc(C(F)F)o4)cn3)nn2)cc1 [Compound 3855] | – | – | – | > 50000 nM | 1818 fold | 27.5 nM
FC(F)(F)c1nnc(-c2ccc(Cn3nnc(-c4ccccc4)n3)nc2)o1 [Compound 4235] | – | – | – | > 50000 nM | 290 fold | 172 nM
OC1(c2cn(Cc3ccc(-c4nnc(C(F)F)o4)cc3F)nn2)COC1 [Compound 4278, 3-(1-(4-(5-(difluoromethyl)-1,3,4-oxadiazol-2-yl)-2-fluorobenzyl)-1H-1,2,3-triazol-4-yl)oxetan-3-ol] | – | – | – | > 50000 nM | 160 fold | 311 nM
Fc1cc(-c2nnc(C(F)F)o2)ccc1Cn1cc(-c2cccc(CN3CCOCC3)c2)nn1 [Compound 4404, 4-(3-(1-(4-(5-(difluoromethyl)-1,3,4-oxadiazol-2-yl)-2-fluorobenzyl)-1H-1,2,3-triazol-4-yl)benzyl)morpholine] | – | – | – | > 50000 nM | 837 fold | 59.7 nM
FC(F)c1nnc(-c2ccc(Cn3cc(-c4cccc(CN5CCC5)c4)nn3)cc2)o1 [Compound 4409, 2-(4-((4-(3-(azetidin-1-ylmethyl)phenyl)-1H-1,2,3-triazol-1-yl)methyl)phenyl)-5-(difluoromethyl)-1,3,4-oxadiazole] | – | – | – | > 50000 nM | 96 fold | 519 nM
CC(C)(C)OC(=O)N1CCCC(c2cn(Cc3ccc(-c4nnc(C(F)F)o4)cn3)nn2)C1 (stereo not drawn) [Compound 3961, Tert-butyl 3-(1-((5-(5-(difluoromethyl)-1,3,4-oxadiazol-2-yl)pyridin-2-yl)methyl)-1H-1,2,3-triazol-4-yl)piperidin-1-carboxylate] | – | – | – | > 50000 nM | 386 fold | 129 nM
CC(=O)N1CCC[C@H]1c1cn(Cc2ccc(-c3nnc(C(F)F)o3)cn2)nn1 [Compound 4029, (S)-1-(2-(1-((5-(5-(difluoromethyl)-1,3,4-oxadiazol-2-yl)pyridin-2-yl)methyl)-1H-1,2,3-triazol-4-yl)pyrrolidin-1-yl)ethan-1-one] | – | – | – | > 50000 nM | 239 fold | 208 nM
CN(C)CC(=O)Nc1cccc(-c2cn(Cc3ccc(-c4nnc(C(F)F)o4)cc3F)nn2)c1 [Compound 4352, N-(3-(1-(4-(5-(difluoromethyl)-1,3,4-oxadiazol-2-yl)-2-fluorobenzyl)-1H-1,2,3-triazol-4-yl)phenyl)-2-(dimethylamino)acetamide] | – | – | – | > 50000 nM | 1562 fold | 33.2 nM
CN(C)Cc1ccc(-c2cn(Cc3ncc(-c4nnc(C(F)F)o4)cc3F)nn2)c(Cl)c1 [Compound 19098, 1-(3-chloro-4-(1-((5-(5-(difluoromethyl)-1,3,4-oxadiazol-2-yl)-3-fluoropyridin-2-yl)methyl)-1H-1,2,3-triazol-4-yl)phenyl)-N,N-dimethylmethanamine] | > 50000 nM | 1315 fold | 38 nM | – | – | –
O=C(O)c1ccc(-c2cn(Cc3ccc(-c4nnc(C(F)F)o4)cc3F)nn2)cc1 [Compound 3732, 4-(1-(4-(5-(difluoromethyl)-1,3,4-oxadiazol-2-yl)-2-fluorobenzyl)-1H-1,2,3-triazol-4-yl)benzoic acid] | – | – | – | > 50000 nM | 74 fold | 672 nM
Fc1cc(-c2nnc(C(F)F)o2)ccc1Cn1cc(-c2cccc(NC3COC3)c2)nn1 [Compound 4332, N-(3-(1-(4-(5-(difluoromethyl)-1,3,4-oxadiazol-2-yl)-2-fluorobenzyl)-1H-1,2,3-triazol-4-yl)phenyl)oxetan-3-amine] | – | – | – | > 50000 nM | 1201 fold | 41.6 nM
CCN1CCN(Cc2cccc(-c3cn(Cc4ccc(-c5nnc(C(F)F)o5)cc4F)nn3)c2)CC1 [Compound 4407, 2-(difluoromethyl)-5-(4-((4-(3-((4-ethylpiperazin-1-yl)methyl)phenyl)-1H-1,2,3-triazol-1-yl)methyl)-3-fluorophenyl)-1,3,4-oxadiazole] | – | – | – | > 50000 nM | 1259 fold | 39.7 nM
CCC(=O)N1CCN(c2cccc(-c3cn(Cc4ccc(-c5nnc(C(F)F)o5)cc4F)nn3)c2)CC1 [Compound 4377, 1-(4-(3-(1-(4-(5-(difluoromethyl)-1,3,4-oxadiazol-2-yl)-2-fluorobenzyl)-1H-1,2,3-triazol-4-yl)phenyl)piperazin-1l-yl)propan-1l-one] | – | – | – | > 50000 nM | 1039 fold | 48.1 nM
Fc1cc(-c2nnc(C(F)F)o2)ccc1Cn1cc(-c2ccc(C3CN(C4COC4)C3)cc2)nn1 [Compound 17700, 2-(difluoromethyl)-5-(3-fluoro-4-((4-(4-(1-(oxetan-3-yl)azetidin-3-yl)phenyl)-1H-1,2,3-triazol-1-yl)methyl)phenyl)-1,3,4-oxadiazole] | > 50000 nM | 626 fold | 79.8 nM | – | – | –
CN1CCC(c2cn(Cc3ccc(-c4nnc(C(F)F)o4)cn3)nn2)CC1 [Compound 3806, 2-(difluoromethyl)-5-(6-((4-(1-methylpiperidin-4-yl)-1H-1,2,3-triazol-1-yl)methyl)pyridin-3-yl)-1,3,4-oxadiazole] | – | – | – | > 50000 nM | 134 fold | 372 nM
FC(F)c1nnc(-c2ccc(Cn3cc(-c4cccc(N5CCN(C6COC6)CC5)c4)nn3)nc2)o1 [Compound 3989, 2-(difluoromethyl)-5-(6-((4-(3-(4-(oxetan-3-yl)piperazin-1-yl)phenyl)-1H-1,2,3-triazol-1-yl)methyl)pyridin-3-yl)-1,3,4-oxadiazole] | – | – | – | > 50000 nM | 1597 fold | 31.3 nM
CN(C)C(C)(C)C(=O)Nc1cccc(-c2cn(Cc3ccc(-c4nnc(C(F)F)o4)cc3)nn2)c1 [Compound 4351, N-(3-(1-(4-(5-(difluoromethyl)-1,3,4-oxadiazol-2-yl)benzyl)-1H-1,2,3-triazol-4-yl)phenyl)-2-(dimethylamino)-2-methylpropanamide] | – | – | – | > 50000 nM | 1193 fold | 41.9 nM
CC1CCN(Cc2ccc(-c3cn(Cc4ccc(-c5nnc(C(F)F)o5)cc4F)nn3)s2)CC1 [Compound 17915] | > 50000 nM | 568 fold | 87.9 nM | – | – | –
